Here are results for eight compounds from patent US6518243B1, “Desleucyl glycopeptide antibiotics and methods of making same” (Trustees of Princeton University, priority 1999, dated 2003).

One experiment relates to E. faecium ATCC 49624. Nature of the experiment: MIC determination in BHI media, OD600. In kind it is cell-based. The settings on record: BHI + 0.1% casamino acids, 18 hours at 37° C., ≧90% OD600 inhibition. An outline of the steps: (§1)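 Inoculum ~5×10^5 CFU/ml from log-phase culture; compounds in DMSO, serial dilution; 18 h, 37° C; plate read for growth, MIC called per concentration.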

Another experiment relates to S. Aureus ATCC 33591. As to the kind of experiment: MIC determination in BHI media, OD600. The class given is cell-based. Conditions: BHI + 0.1% casamino acids, 18 hours at 37° C., ≧90% OD600 inhibition. Put shortly: as §1
Another experiment relates to E. faecalis ATCC 29212. Nature of the experiment: MIC determination in BHI media, OD600. In kind it is cell-based. The settings on record: BHI + 0.1% casamino acids, 18 hours at 37° C., ≧90% OD600 inhibition. Put shortly:
as §1

The next experiment relates to S aureus ATCC 29213. Nature of the experiment: MIC determination in BHI media, OD600. In kind it is cell-based. Conditions: BHI + 0.1% casamino acids, 18 hours at 37° C., ≧90% OD600 inhibition. Put shortly:
as §1

Another experiment relates to E. faecium CL 4931. Nature of the experiment: MIC determination in BHI media, OD600. The class given is cell-based. Conditions: BHI + 0.1% casamino acids, 18 hours at 37° C., ≧90% OD600 inhibition. An outline of the steps: as §1
Another experiment has as its system E. faceium (ATCC 49624). Nature of the experiment: Zone of inhibition screen, 96 well agar array format. The class given is cell-based, E. faecium. Conditions: zone of inhibition relative to 1 mg/ml stock solution of p-chlorobiphenylvancomycin. An outline of the steps: (§2)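 Agar-array screen, 96-well; single compounds vs. strain panel (panel also incl. E. faecium ATCC 49624); antibacterial activity scored.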

For a further experiment, the system named is E. Faecalis CL 4877. Nature of the experiment: MIC determination in BHI media, OD600. In kind it is cell-based. Conditions: BHI + 0.1% casamino acids, 18 hours at 37° C., ≧90% OD600 inhibition. Put shortly:
as §1

Another experiment concerns E. faecalis (CL 4877). As to the kind of experiment: Zone of inhibition screen, 96 well agar array format. Also on record: scale not given here. Conditions: zone of inhibition relative to 1 mg/ml stock solution of p-chlorobiphenylvancomycin. In kind it is cell-based. An outline of the steps: as §2
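Throughout, for zone score, E. faecium ATCC 49624: score 3 means fourfold and score 4 sixteenfold the reference zone size.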

With `CC(C)OCC(N)C(=O)NC1C(=O)NC(CC(N)=O)C(=O)NC2C(=O)NC3C(=O)NC(C(=O)NC(C(=O)O)c4cc(O)cc(O)c4-c4cc3ccc4O)C(O)c3ccc(c(Cl)c3)Oc3cc2cc(c3OC2OC(CO)C(O)C(O)C2OC2CC(C)(NCc3ccc(-c4ccc(Cl)cc4)cc3)C(O)C(C)O2)Oc2ccc(cc2Cl)C1O` (stereo not drawn) [Compound 528], the MIC E. faecium ATCC 49624 in the experiment on E. faecium ATCC 49624 is 0.12 mg/L. Besides, the MIC S. aureus ATCC 33591 with S. Aureus ATCC 33591 worked out at 0.25 mg/L. Also, in the experiment with E. faecalis ATCC 29212, the MIC E. faecalis ATCC 29212 came out at 0.78 mg/L. Besides, the MIC S. aureus ATCC 29213 in the experiment with S aureus ATCC 29213 amounted to 0.25 mg/L. Besides, the MIC E. faecium CL 4931 in the experiment on E. faecium CL 4931 was 25 mg/L.

As for `CC(C)[C@H](N)C(=O)N[C@H]1C(=O)N[C@@H](CC(N)=O)C(=O)N[C@H]2C(=O)N[C@H]3C(=O)N[C@H](C(=O)N[C@@H](C(=O)O)c4cc(O)cc(O)c4-c4cc3ccc4O)[C@H](O)c3ccc(c(Cl)c3)Oc3cc2cc(c3O[C@@H]2O[C@H](CO)[C@@H](O)[C@H](O)[C@H]2O[C@@H]2C[C@@](C)(NCc3ccc(-c4ccc(Cl)cc4)cc3)[C@@H](O)[C@@H](C)O2)Oc2ccc(cc2Cl)[C@H]1O` [Compound 20], the “zone score, E. faecium ATCC 49624” value with E. faceium (ATCC 49624) is reported as 2. In the experiment with E. faecium ATCC 49624, the MIC E. faecium ATCC 49624 stood at 0.25 mg/L. In addition, the MIC S. aureus ATCC 33591 in the experiment on S. Aureus ATCC 33591 is 0.39 mg/L. Further, the MIC E. faecalis ATCC 29212 with E. faecalis ATCC 29212 came out at 0.78 mg/L. In the experiment with S aureus ATCC 29213, the MIC S. aureus ATCC 29213 was found to be 0.25 mg/L.

As for `CCCC(N)C(=O)NC1C(=O)NC(CC(N)=O)C(=O)NC2C(=O)NC3C(=O)NC(C(=O)NC(C(=O)O)c4cc(O)cc(O)c4-c4cc3ccc4O)C(O)c3ccc(c(Cl)c3)Oc3cc2cc(c3OC2OC(CO)C(O)C(O)C2OC2CC(C)(NCc3ccc(-c4ccc(Cl)cc4)cc3)C(O)C(C)O2)Oc2ccc(cc2Cl)C1O` (stereo not drawn) [Compound 341], the MIC E. faecalis CL 4877 in the experiment on E. Faecalis CL 4877 turned out to be 25 mg/L. In addition, the MIC E. faecium ATCC 49624 with E. faecium ATCC 49624 worked out at 0.78 mg/L. The MIC S. aureus ATCC 33591 in the experiment on S. Aureus ATCC 33591 is 0.78 mg/L. Besides, the MIC S. aureus ATCC 29213 with S aureus ATCC 29213 came to 0.78 mg/L.

`CC1OC(OC2C(Oc3c4cc5cc3Oc3ccc(cc3Cl)C(O)C3NC(=O)C(NC(=O)C5NC(=O)C(CC(N)=O)NC(=O)C(NC(=O)C(N)Cc5c[nH]cn5)C(O)c5ccc(c(Cl)c5)O4)c4ccc(O)c(c4)-c4c(O)cc(O)cc4C(C(=O)O)NC3=O)OC(CO)C(O)C2O)CC(C)(NCc2ccc(-c3ccc(Cl)cc3)cc2)C1O` (stereo not drawn) [Compound 554]: the MIC E. faecalis CL 4877 with E. Faecalis CL 4877 was 25 mg/L. Also, in the experiment on E. faecium ATCC 49624, the MIC E. faecium ATCC 49624 stood at 0.39 mg/L. In addition, in the experiment on S. Aureus ATCC 33591, the MIC S. aureus ATCC 33591 was found to be 0.78 mg/L.

In the case of `CC1OC(OC2C(Oc3c4cc5cc3Oc3ccc(cc3Cl)C(O)C3NC(=O)C(NC(=O)C5NC(=O)C(CC(N)=O)NC(=O)C(NC(=O)C(N)CSC(C)(C)C)C(O)c5ccc(c(Cl)c5)O4)c4ccc(O)c(c4)-c4c(O)cc(O)cc4C(C(=O)O)NC3=O)OC(CO)C(O)C2O)CC(C)(NCc2ccc(-c3ccc(Cl)cc3)cc2)C1O` (stereo not drawn) [Compound 334], the MIC E. faecium ATCC 49624 in the experiment on E. faecium ATCC 49624 amounted to 0.12 mg/L. The MIC S. aureus ATCC 33591 with S. Aureus ATCC 33591 came out at 0.25 mg/L. Further, the MIC E. faecalis ATCC 29212 with E. faecalis ATCC 29212 was determined as 0.78 mg/L. In addition, the MIC S. aureus ATCC 29213 in the experiment with S aureus ATCC 29213 turned out to be 0.25 mg/L. For the same compound, in the experiment with E. faecium CL 4931, the MIC E. faecium CL 4931 is 25 mg/L.

As for `CC1OC(OC2C(Oc3c4cc5cc3Oc3ccc(cc3Cl)C(O)C3NC(=O)C(NC(=O)C5NC(=O)C(CC(N)=O)NC(=O)C(NC(=O)C(N)CSC(C)(C)C)C(O)c5ccc(c(Cl)c5)O4)c4ccc(O)c(c4)-c4c(O)cc(O)cc4C(C(=O)O)NC3=O)OC(CO)C(O)C2O)CC(C)(NCc2ccc(-c3ccc(Cl)cc3)cc2)C1O` (stereo not drawn) [Compound 333], in the experiment with E. Faecalis CL 4877, the MIC E. faecalis CL 4877 was found to be 25 mg/L. Further, the MIC E. faecium CL 4931 in the experiment with E. faecium CL 4931 was determined as 25 mg/L.

Regarding `CC1OC(OC2C(Oc3c4cc5cc3Oc3ccc(cc3Cl)C(O)C3NC(=O)C(NC(=O)C5NC(=O)C(CC(N)=O)NC(=O)C(NC(=O)C(N)COCc5ccccc5)C(O)c5ccc(c(Cl)c5)O4)c4ccc(O)c(c4)-c4c(O)cc(O)cc4C(C(=O)O)NC3=O)OC(CO)C(O)C2O)CC(C)(NCc2ccc(-c3ccc(Cl)cc3)cc2)C1O` (stereo not drawn) [Compound 338], in the experiment with E. Faecalis CL 4877, the MIC E. faecalis CL 4877 worked out at 25 mg/L. Besides, the MIC E. faecium ATCC 49624 with E. faecium ATCC 49624 was 0.25 mg/L. In the experiment on S. Aureus ATCC 33591, the MIC S. aureus ATCC 33591 was 0.39 mg/L.

For the compound `CSCCC(N)C(=O)NC1C(=O)NC(CC(N)=O)C(=O)NC2C(=O)NC3C(=O)NC(C(=O)NC(C(=O)O)c4cc(O)cc(O)c4-c4cc3ccc4O)C(O)c3ccc(c(Cl)c3)Oc3cc2cc(c3OC2OC(CO)C(O)C(O)C2OC2CC(C)(NCc3ccc(-c4ccc(Cl)cc4)cc3)C(O)C(C)O2)Oc2ccc(cc2Cl)C1O` (stereo not drawn) [Compound 41], the “zone score, E. faecium ATCC 49624” value in the experiment on E. faceium (ATCC 49624) is listed as 2. Besides, in the experiment on E. faecium ATCC 49624, the MIC E. faecium ATCC 49624 worked out at 0.25 mg/L. In addition, in the experiment with S. Aureus ATCC 33591, the MIC S. aureus ATCC 33591 worked out at 0.39 mg/L. The MIC E. faecalis ATCC 29212 with E. faecalis ATCC 29212 amounted to 0.78 mg/L. Besides, the MIC S. aureus ATCC 29213 with S aureus ATCC 29213 came out at 0.39 mg/L. In addition, the “zone score, E. faecalis CL 4877” value in the experiment with E. faecalis (CL 4877) came to 2.
